Measurements as given in patent US12435032B2, “L-γ-methyleneglutamine compounds and methods of use” (University of Mississippi, priority 2019, dated 2025).
“Also recorded” adds a separate entry of the source. Read-outs that look alike come from different tables or passages of the source.

Columns and labels:
[1] = tested on: MCF-7 (ER+/PR+/HER2−) breast cancer cells; assay: Growth inhibition of MCF-7 cells (Hoechst 33342 fluorescence vs non-treated wells); type: cell-based; settings: dose-response 0.32-320 μM
Experimental: (§1) Olaparib was chosen because it is one of a few FDA-approved chemotherapeutics for triple-negative breast cancer.
(§2) Cells were incubated for 15 minutes at 37° C.

[2] = tested on: SK-BR-3 (ER−/PR−/HER2+) breast cancer cells; assay: Growth inhibition of SK-BR-3 cells; type: cell-based; settings: Homo sapiens, dose-response 0.32-320 μM
Experimental: as §1, §2

[3] = tested on: triple-negative MDA-MB-231 breast cancer cells; assay: Growth inhibition of MDA-MB-231 cells; type: cell-based; settings: for IC50: Homo sapiens; for IC50 / Growth Inhibition IC50: dose-response 0.32-320 μM; for growth inhibition potency compared with olaparib: MDA-MB-231, throughout testing (24 h and 72 h)
Experimental: as §1, §2

[4] = tested on: MCF-10A non-cancerous breast cells; assay: Growth inhibition of MCF-10A cells (negative control line); type: cell-based; settings: Homo sapiens, dose-response 0.32-320 μM
Experimental: as §1, §2

[5] = tested on: MCF-7 breast cancer cells; assay: Cytotoxicity (cell death, propidium iodide) in MCF-7 cells; type: cell-based; settings: for EC50: Homo sapiens, MCF7
[6] = tested on: SK-BR-3 breast cancer cells; assay: Cytotoxicity (cell death, propidium iodide) in SK-BR-3 cells; type: cell-based; settings: for EC50: Homo sapiens, dose-response 0.32-320 μM
[7] = Cytotoxicity (cell death, propidium iodide) in MCF-10A cells; type: cell-based; settings: human, MCF-10A non-cancerous breast cells
Experimental: (§3) To assess the selectivity of cytotoxicity for cancer cells, all drugs and compounds were screened against MCF-10A, non-cancerous breast cells.
as §2

[8] = tested on: triple-negative MDA-MB-231 breast cancer cells; assay: cells; settings: Homo sapiens
[9] = tested on: newborn rat spinal cord; settings: cited from earlier work
[10] = tested on: central nervous system (CNS); settings: cited from earlier work
[11] = tested on: MCF-10A non-cancerous breast cells; assay: Cytotoxicity (cell death, propidium iodide) in MCF-10A cells; type: cell-based
Experimental: as §3, §2

[12] = Homo sapiens, MCF7, 24 h, MCF-7, 24 h exposure
[13] = Homo sapiens, MCF7, 72 h, MCF-7, 72 h exposure
[14] = MCF-7, 24 h exposure, dose-response 0.32-320 μM, read-out: Cytotoxicity EC50
[15] = MCF-7, 72 h exposure, dose-response 0.32-320 μM, read-out: Cytotoxicity EC50
[16] = MDA-MB-231, 24 h, read-out: Cytotoxicity EC50
[17] = MDA-MB-231, 72 h, read-out: Cytotoxicity EC50
[18] = SK-BR-3, 72 h / after the first 24 h
[19] = MDA-MB-231, read-out: cytotoxic EC50

SMILES	IC50 [1, 12] [µM]	IC50 [1, 13] [µM]	IC50 ([2]; SK-BR-3, 24 h exposure) [µM]	IC50 ([2]; SK-BR-3, 72 h exposure) [µM]	IC50 ([3]; MDA-MB-231, 24 h exposure) [µM]	IC50 ([3]; MDA-MB-231, 72 h exposure) [µM]	Growth Inhibition IC50 ([3]; MDA-MB-231, 24 h exposure)	Growth Inhibition IC50 ([3]; MDA-MB-231, 72 h exposure)	IC50 ([4]; 24 h exposure) [µM]	IC50 ([4]; 72 h exposure) [µM]	EC50 [5, 14] [µM]	EC50 [5, 15] [µM]	EC50 for MCF-7 cytotoxicity ([5]; MCF-7, 72 h exposure)	EC50 ([6]; SK-BR-3, 24 h exposure) [µM]	EC50 ([6]; SK-BR-3, 72 h exposure) [µM]	EC50 at 24 h ([7]; 24 h exposure) [µM]	EC50 at 24 h ([7]; head prints 24 h) [µM]	EC50 [8, 16] [µM]	EC50 [8, 17] [µM]	cytotoxicity EC50 [6, 18]	other results
C=C(C[C@H](N)C(=O)O)C(N)=O [Compound 1, (S)-2-amino-4-carbamoylpent-4-enoic acid]	459	609	7.9	11.3	141	585	potency that was commensurate to tamoxifen	longer-term performance commensurate to olaparib; also recorded: as efficacious as olaparib	> 1000	> 1000	152	3	significantly lower than tamoxifen	0.2	2	> 1000	> 1000	8.9	320	–	cytotoxicity EC50 ([6]; SK-BR-3, at 24 or 72 h): commensurate EC50's at 24 or 72 h
C=C(C[C@H](N)C(=O)O)C(=O)O [Compound 2, L-γ-methyleneglutamic acid]	–	–	–	–	–	–	–	–	–	–	–	–	–	–	–	–	–	–	–	–	potency relative to L-glutamate as a depolarizing agent [9]: 10 times; central nervous system (CNS) inhibitory activity [10]: strong
C=C(C[C@H](N)C(=O)O)C(=O)NCc1ccccc1 [Compound 4, (S)-2-amino-4-(benzylcarbamoyl) pent-4-enoic acid]	> 1000	197	74.2	0.6	481	649	–	poorer potency than olaparib	> 1000	> 1000	664	218	–	0.1	> 1000	> 1000	563	374	980	much reduced toxicity	cytotoxicity EC50 ([11]; after the first 24 h): EC50 in the micromolar range
C=C(C[C@H](N)C(=O)O)C(=O)NCc1ccc(F)cc1 [Compound 5, (S)-2-amino-4-((4-fluorobenzyl)carbamoyl)pent-4-enoic acid]	590	85.3	3.9	4.5	350	339	–	–	> 1000	> 1000	> 1000	54.5	–	> 1000	0.4	796	> 1000	265	262	cell death was apparent	growth inhibition potency compared with olaparib [3]: equipotent to olaparib; cytotoxicity ([6]; SK-BR-3, 24 h exposure): devoid of toxicity; cytotoxicity EC50 ([11]; within the first 24 h): EC50 below the millimolar range
C=C(C[C@H](N)C(=O)O)C(=O)NCc1ccc([N+](=O)[O-])cc1 [Compound 6, (S)-2-amino-4-((4-nitrobenzyl)carbamoyl) pent-4-enoic acid]	457	534	12.8	3.2	216	368	potency that was commensurate to tamoxifen	longer-term performance commensurate to olaparib; also recorded: as efficacious as olaparib	> 1000	> 1000	485	20.4	–	0.3	0.4	> 1000	> 1000	150	270	–	cytotoxicity EC50 ([6]; SK-BR-3, at 24 or 72 h): commensurate EC50's at 24 or 72 h
C=C(C[C@H](N)C(=O)O)C(=O)NC1CC1 [Compound 7, (S)-2-amino-4-(cyclopropylcarbamoyl) pent-4-enoic acid]	231	416	314	0.6	649	922	–	poorer potency than olaparib	> 1000	> 1000	64.1	508	–	272	> 1000	> 1000	> 1000	933	> 1000	much reduced toxicity	Growth Inhibition IC50 ([1]; MCF-7, 72 h exposure): significantly less potent than tamoxifen; EC50 ([5]; MCF-7, 24 h exposure, read-out: EC50 for cytotoxicity): 64 µM
C=C(C[C@H](N)C(=O)O)C(=O)N1CCCCC1 [Compound 8, (S)-2-amino-4-(piperidine-1-carbonyl) pent-4-enoic acid]	434	606	133	0.6	685	813	poorer potency than both tamoxifen or olaparib	poorer potency than olaparib	> 1000	> 1000	197	198	did not change	0.1	> 1000	> 1000	> 1000	> 1000	> 1000	much reduced toxicity	Growth Inhibition IC50 ([1]; MCF-7, 72 h exposure): significantly less potent than tamoxifen
C=C(C[C@H](N)C(=O)O)C(=O)Nc1ccc(F)cc1 [Compound 9, (S)-2-amino-4-((4-fluorophenyl)carbamoyl) pent-4-enoic acid]	414	76	11.4	4.7	652	419	–	–	> 1000	> 1000	161	2.3	significantly lower than tamoxifen	0.2	0.1	> 1000	> 1000	> 1000	450	–	growth inhibition potency compared with olaparib [3]: equipotent to olaparib; cytotoxicity EC50 ([6]; SK-BR-3, at 24 or 72 h): commensurate EC50's at 24 or 72 h
C=C(C[C@H](N)C(=O)O)C(=O)Nc1ccc(Cl)cc1 [Compound 10, (S)-2-amino-4-((4-chlorophenyl)carbamoyl) pent-4-enoic acid]	397	171	78.7	4	867	712	poorer potency than both tamoxifen or olaparib	poorer potency than olaparib	> 1000	> 1000	205	93.2	–	262	> 1000	> 1000	> 1000	> 1000	> 1000	much reduced toxicity	–
O=C(c1cc(Cc2n[nH]c(=O)c3ccccc23)ccc1F)N1CCN(C(=O)C2CC2)CC1 [Olaparib, reference compound]	> 1000	–	1.6	1.1	161	154	–	–	> 1000	> 1000	> 1000	26.5	micromolar EC50	> 1000	0.1	511	> 1000	61.2	97.1	–	IC50 ([1]; MCF-7, 72 h exposure): 108 µM; EC50 for cytotoxicity ([5]; MCF-7, 24 h exposure): neither tamoxifen nor olaparib were cytotoxic; cytotoxicity ([6]; SK-BR-3, 24 h exposure): neither tamoxifen nor olaparib were cytotoxic; EC50 at 24 h ([7]; within the first 24 h): 268 to 511 µM; EC50 [8, 19]: ≤ 100 µM
CC/C(=C(\c1ccccc1)c1ccc(OCCN(C)C)cc1)c1ccccc1 [Tamoxifen, reference compound]	–	–	–	–	–	–	–	–	–	–	> 1000	–	micromolar EC50	> 1000	0.3	268	> 1000	26	30.9	–	EC50 for cytotoxicity ([5]; MCF-7, 24 h exposure): neither tamoxifen nor olaparib were cytotoxic; cytotoxicity ([6]; SK-BR-3, 24 h exposure): neither tamoxifen nor olaparib were cytotoxic; EC50 at 24 h ([7]; within the first 24 h): 268 to 511 µM; EC50 [8, 19]: ≤ 100 µM
